The source of these data is patent publication US20220315574A1, “Beta-Arrestin-Modulating Compounds and Methods of Using Same” (Duke University, priority 2019, published 2022).

The structures appear in SMILES notation. Structures can show the parent of a compound that is named as a salt.

Common to all, as to format: cell-based
Test [1] has as its target T1, βarr2 recruitment to agonist-activated β2V2R (Homo sapiens, UniProt P32121).
T1 construct: host or cells: U2OS
Briefly: DiscoveRx PathHunter β-arrestin recruitment assay in U2OS cells. To be noted: series of compound concentrations, 30 min pretreatment, isoproterenol dose-response. How it is done:
β-arrestin recruitment to the agonist-activated receptor (02V2R) was measured using the DiscoveRx PathHunter β-arrestin assay (Ahn, S. et al. Allosteric “beta-blocker” isolated from a DNA-encoded small molecule library. Proc Natl Acad Sci U SA 114, 1708-1713, doi:10.1073/pnas.1620645114 (2017)). […] Agonist-stimulated recruitment of βarr2 to the receptor results in the formation of functionally active β-gal enzyme. Addition of substrate generates a chemiluminescence signal directly correlated to the extent of recruitment. U2OS cells co-expressing β2V2R and βarr2 were plated in 96-well clear-bottomed plates at a density of 25,000 cells per well (80 μL per well), 24 hours prior to compound treatment. On the day of experiment, cells were first treated with compound or vehicle for 30 min, followed by agonist (Iso) stimulation for 60 min at 37° C. Cells were then treated with PathHunter™ detection reagents for 90 min at 37° C., and luminescence signals were measured using a CLARIOstar microplate reader (BMG Labtech Inc., Cary, N.C.).

In another test the test system is V2R. Briefly: BRET based receptor internalization assay. The following applies: V2R-expressing cells stimulated with AVP. Here is the method: BRET-based assays were performed to measure receptor internalization using two complementary bystander BRET-formats. First, the association of the receptor (β2V2R-RlucII or V2R-RlucII, BRET donor) with the early endosome (2×FYVE-mVenus, BRET acceptor) was directly measured following agonist stimulation as described previously (Smith, J. S. et al. C-X-C Motif Chemokine Receptor 3 Splice Variants Differentially Activate Beta-Arrestins to Regulate Downstream Signaling Pathways. Mol Pharmacol 92, 136-150, doi:10.1124/mol.117.108522 (2017)). Second, receptor internalization following agonist stimulation was determined by measuring BRET signal from labeled receptor (β2V2R-RlucII or V2R-RlucII, BRET donor) and plasma membrane component (myr-palm-mVenus, BRET acceptor). Cells were transfected with 2.5 μg V2R-RlucII and 10 μg 2×FYVE-mVenus or 2 μg of myr-palm-mVenus using FuGENE HD (Promega, Madison, Wis.) in an individual 10 cm dish. ˜24 hours post-transfection, cells were seeded in white 96-well clear-bottomed plates at a density of 75,000 cells per well. The following day cells were washed and the media was changed to Hanks' Balanced Salt Solution (HBSS) buffer supplemented with 10 mM HEPES for 1 hours at 37° C. Cells were pretreated with βarr modulating compounds (50 μM) or vehicle, then incubated for 30 min at 37° C. Cells were stimulated with increasing doses of agonist isoproterenol or arginine vasopressin (GenScript). Coelenterazine-h was added to the cells 5 min prior to BRET measurements to a final concentration of 5 μM. BRET measurements were performed using the Synergy2 (BioTek®) microplate reader with a filter set of 410/80 nm and 515/30 nm to detect the RlucII (donor) and mVenus (acceptor) light emissions, respectively. The BRET signal was determined by calculating the ratio of the light intensity emitted by the acceptor over the light intensity emitted by the donor. Net BRET was calculated using this ratio and subtracting the same ratio measured from cells expressing only the BRET donor.

The test system of a further test is ERK1/2. Briefly: Live cell ERK1/2 activation assay (HEK293 cells stably expressing β2AR). The following applies: for βarr1/2-dependent ERK activation through β2-adrenergic receptor: carvedilol stimulation after compound pretreatment. How it is done: To assess the effect(s) of βarr small-molecule modulators on receptor-stimulated β-arr dependent ERK1/2 activation, HEK293 cells stably expressing β2AR plates were starved for 6 hours in serum-free medium prior to stimulation (Wisler, J. W. et al. A unique mechanism of beta-blocker action: carvedilol stimulates beta-arrestin signaling. Proc Natl Acad Sci USA 104, 16657-16662, doi:10.1073/pnas.0707936104 (2007); Wang, J. et al. Galphai is required for carvedilol-induced beta1 adrenergic receptor beta-arrestin biased signaling. Nat Commun 8, 1706, doi:10.1038/s41467-017-01855-z (2017)). Cells were pretreated with βarr small-molecule modulators or vehicle, then incubated for 30 min at 37° C. After stimulation with appropriate receptor ligand (carvedilol or isoproterenol) for indicated time points, reactions were terminated by the addition of Laemmli sample buffer. The cell lysates were sonicated for 15 sec (2×) and clarified by centrifugation 14,000×g (4° C., 15 min). Proteins were resolved on an SDS-PAGE gel, transferred to nitrocellulose membranes, and immunoblotted using rabbit polyclonal anti-phospho-p44/42 MAPK (ERK1/2) antibody (1:2000; Cell Signaling), anti-MAPK1/2 (ERK1/2) antibody (1:10,000; Millipore-Sigma), anti-β-arrestin1 antibody (A1CT; 1:3000) or anti-β-arrestin2 antibody (A1CT; 1:3000, Lefkowitz lab, Duke University). Protein bands on the membrane were detected with SuperSignal West Pico enhanced chemiluminescent substrate (Thermo Fisher) and captured using a ChemiDoc-XRS charge-coupled device camera system (Bio-Rad Laboratories). Bands were quantified by densitometry using Image Lab (Bio-Rad, Hercules, Calif.) and GraphPad Prism software was used for data analyses.
For experiments involving siRNA transfection and knockdown βarrs, after stimulation cells were lysed in ice-cold 1% NP-40 lysis buffer [20 mM tris-HCl (pH 7.4), 137 mM NaCl, 20% glycerol, 1% NP-40, 2 mM sodium orthovanadate, 1 mM phenylmethylsulfonyl fluoride, 10 mM sodium fluoride, aprotinin (10 μg/ml), leupeptin (5 μg/ml), and phosphatase inhibitors (Phos-STOP; Roche)], rotated for 45 min, and cleared of insoluble debris by centrifugation at 14,000×g (4° C., 15 min). After which the supernatant was collected, protein concentration determined, and equal amounts of cell lysate were mixed with 2×Laemmli sample buffer. Samples were analyzed afterwards essentially as described above.

For the next test, the system named is human AT1aR. Briefly: Intracellular calcium measurement, receptor desensitization. The following applies: AngII-induced calcium signal. Here is the method:
Intracellular [Ca^2+] release was measured using FLIPR Calcium 6 with the FlexStation 3 microplate reader according to the manufacturer's instructions (Molecular Devices, LLC). Briefly, HEK293 cells stably expressing human AT1aR were seeded in poly-D-lysine-coated black 96-well assay plates (35,000 cells per well) and incubated for 24 hours. On the day of experiment, cell plates were loaded with the appropriate calcium kit reagents and then treated with βarr small molecule modulators or vehicle for 30 min. Basal fluorescence (FO) was measured, agonist was applied while fluorescence (F) intensity was monitored in real time.

The test system of another test is β2AR. Briefly: FRET-based cAMP accumulation (ICUE2 HEK293 cells), receptor desensitization. To be noted: ICUE cells pretreated with inhibitor. How it is done: The Epac2 (ICUE2) sensor contains a CFP and YFP FRET pair. HEK293 cells stably expressing the ICUE2 cells were plated in poly-D-lysine-coated black 96 well plates (Corning) at a cell density of 50,000 cells per well. 16 hours after plating, cells were PBS-washed, then incubated in HEPES-buffered saline solution (150 mM NaCl, 5 mM KCl, 1 mM MgCl2, 2 mM CaCl2, 10 mM glucose, and 10 mM HEPES, pH 7.4) for one hour.

T1 sequence (P32121 whole entry): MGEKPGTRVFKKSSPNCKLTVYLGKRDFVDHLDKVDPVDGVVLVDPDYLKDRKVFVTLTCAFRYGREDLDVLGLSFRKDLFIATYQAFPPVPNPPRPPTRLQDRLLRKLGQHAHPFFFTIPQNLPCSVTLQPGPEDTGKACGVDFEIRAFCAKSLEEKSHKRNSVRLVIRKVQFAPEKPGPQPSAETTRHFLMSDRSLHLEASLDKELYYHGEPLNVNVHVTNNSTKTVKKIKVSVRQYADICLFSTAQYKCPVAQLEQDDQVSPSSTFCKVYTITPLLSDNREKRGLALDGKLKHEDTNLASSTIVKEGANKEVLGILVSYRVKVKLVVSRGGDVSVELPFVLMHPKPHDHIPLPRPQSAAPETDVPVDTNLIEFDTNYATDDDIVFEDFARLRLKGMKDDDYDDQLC

Take `CN(C)c1n/c(=N/Cc2ccco2)ss1` [Cmpd-30, 5-(furan-2-ylmethylimino)-N,N-dimethyl-1,2,4-dithiazol-3-amine;hydrobromide]: in test [1], the “maximal agonist induced βarr recruitment response” value is “significantly diminished”. For the same compound, the “internalization of the receptor and association with early endosomes” value (“internalization” below) in the test with V2R is given as “inhibit”. Also, in the test with ERK1/2 (Homo sapiens, HEK293, βarr-dependent but receptor-independent), it took 500 nM to reach a half-maximal effect (EC50). Moreover, in the test with ERK1/2 (compound alone, absent of agonist), the “basal phosphorylation of ERK1/2” value is given as “increased”. Besides, in the test on ERK1/2 (compound alone, decline observed at 30 minutes), the “time of peak ERK activation signal” value lay in the range of 15 to 20 min. Also, the “compound-induced ERK1/2 phosphorylation after knockdown of βarr1/2” value in the test with ERK1/2 (βarr1/2 siRNA vs control siRNA) is “markedly impaired”. Further, the “desensitization of AT1aR” value with human AT1aR is recorded as “inhibited”. In the test with β2AR, the “isoproterenol-stimulated cAMP accumulation vs untreated control cells” value is “increased cAMP accumulation”.

In the case of `C=C1C(=O)C23[C@H](O)C1CC[C@H]2[C@]12COC3(O)[C@@H](O)[C@@H]1C(C)(C)CC[C@@H]2O` [Cmpd-5, (1R,2S,10S,11R,15S,18R)-9,10,15,18-tetrahydroxy-12,12-dimethyl-6-methylidene-17-oxapentacyclo[7.6.2.15,8.01,11.02,8]octadecan-7-one], the “maximal agonist induced βarr recruitment response” value in test [1] is “significantly diminished”. For the same compound, the “internalization” value in the test on V2R is reported as “inhibit”. In the test on ERK1/2, the “βarr1/2-dependent ERK activation through β2-adrenergic receptor” value is “attenuate”. Besides, the “desensitization of AT1aR” value in the test on human AT1aR is “inhibited”. Besides, the “isoproterenol-stimulated cAMP accumulation vs untreated control cells” value in the test with β2AR is “increased cAMP accumulation”.

Take `C=C1C(=O)OC2CC3(C)OC3CC/C(C)=C\C(OC(C)=O)C12` (stereo not drawn) [Cmpd-64, [(8Z)-3,8-dimethyl-12-methylidene-13-oxo-4,14-dioxatricyclo[9.3.0.03,5]tetradec-8-en-10-yl] acetate]: the “maximal agonist induced βarr recruitment response” value in test [1] is reported as “significantly diminished”. The “internalization” value in the test with V2R is reported as “inhibit”. Further, the “βarr1/2-dependent ERK activation through β2-adrenergic receptor” value with ERK1/2 is recorded as “attenuate”. The “desensitization of AT1aR” value with human AT1aR was “inhibited”. The “isoproterenol-stimulated cAMP accumulation vs untreated control cells” value with β2AR is “increased cAMP accumulation”.
